Tests used:
Type in all cases: biochemical
[1] = tested on: Norepinephrine uptake (3H-norepinephrine, hippocampus synaptosomes); experiment: Inhibition of norepinephrine uptake in rat brain synaptosomes (hippocampus); details: for IC50: rat hippocampus synaptosomes, 3H-norepinephrine, 37° C., read-out: Inhibition of neurotransmitter uptake in synaptosomes, Norepinephrine IC 50
From the text: (§1) The mode of action of a group of therapeutically frequently used antidepressants (for example tricyclic antidepressants) include the inhibition of the neuronal uptake of transmitter substances (norepinephrine, dopamine, serotonin). This property is utilized in biological test models to characterize potential antidepressants.
(§2) The following method was used: Inhibition of neurotransmitter uptake in rat brain synaptosomes
(§3) Hippocampus, corpus striatum and cortex of rat brains were dissected out and homogenized in 0.32M sucrose solution. Differential centrifugation gave synaptosomes which were suspended in buffer solution. Synaptosomes are capable of actively taking up added neurotransmitter substances (for example norepinephrine, dopamine, serotonin) from the surrounding medium. With the aid of uptake inhibitors it is possible to counteract this process to a degree which depends on the concentration. The synaptosomes were mixed with the test substances in various concentrations and then incubated at 37° C. with ^3 H-norepinephrine (hippocampus), ^3 H-dopamine (corpus striatum) and ^3 H-serotonin (cortex). The substrate concentration was about […]. The uptake was determined by dilution with ice-cold buffer solution; thereafter the synaptosomes were separated off by centrifugation, and the ^3 H activity was measured in the sediment. A blank value was determined by incubating at 0° C.
(§4) The median inhibitory concentration (IC 50) was calculated from the inhibitor values found for the various inhibitor concentrations by comparison with the blank test by linear regression following logit-log conversion.

[2] = tested on: Dopamine uptake (3H-dopamine, corpus striatum synaptosomes); experiment: Inhibition of dopamine uptake in rat brain synaptosomes (corpus striatum); details: for IC50: rat corpus striatum synaptosomes, 3H-dopamine, 37° C., read-out: Inhibition of neurotransmitter uptake in synaptosomes, Dopamine IC 50
From the text: as §1, §2, §3, §4

[3] = tested on: Serotonin uptake (3H-serotonin, cortex synaptosomes); experiment: Inhibition of serotonin uptake in rat brain synaptosomes (cortex); details: 37° C., read-out: Inhibition of neurotransmitter uptake in synaptosomes, Serotonin IC 50
From the text: as §1, §2, §3, §4

SMILES | IC50 [1] [µM] | IC50 [2] [µM] | IC50 [3] [µM] | potency of inhibition of noradrenaline uptake compared with imipramine, in words [1] | inhibition of dopamine uptake, in words ([2]; qualitative statement)
CN1CC[C@@H](c2ccccc2)[C@H]1/C=C/c1ccccc1 (relative stereo) [Example 1 cis, cis-3-phenyl-2-trans-styryl-N-methylpyrrolidine] | 0.029 | 0.12 | > 1 | – | –
CN1CC[C@@H](c2ccccc2)[C@@H]1/C=C/c1ccccc1 (relative stereo) [Example 1 trans, trans-3-phenyl-2-trans-styryl-N-methylpyrrolidine] | 0.0073 | 0.092 | > 1 | appreciably exceeded by the compounds according to the invention | –
CCN1CC[C@@H](c2ccccc2)[C@H]1/C=C/c1ccccc1 (relative stereo) [Example 2 cis, cis-3-phenyl-2-trans-styryl-N-ethylpyrrolidine] | 0.043 | 0.18 | > 1 | – | –
CCN1CC[C@@H](c2ccccc2)[C@@H]1/C=C/c1ccccc1 (relative stereo) [Example 2 trans, trans-3-phenyl-2-trans-styryl-N-ethylpyrrolidine] | 0.0055 | 0.023 | > 1 | appreciably exceeded by the compounds according to the invention | –
CCCN1CC[C@@H](c2ccccc2)[C@H]1/C=C/c1ccccc1 (relative stereo) [Example 3 cis, cis-3-phenyl-2-trans-styryl-N-n-propylpyrrolidine] | – | – | > 1 | – | –
CCCN1CC[C@@H](c2ccccc2)[C@@H]1/C=C/c1ccccc1 (relative stereo) [Example 3 trans, trans-3-phenyl-2-trans-styryl-N-n-propylpyrrolidine] | 0.16 | 0.4 | > 1 | – | –
CN(C)CCCN1c2ccccc2CCc2ccccc21 [Imipramine, reference compound] | 0.014 | > 1 | 0.13 | – | not possessed by imipramine
